Assay results reported in patent US6203822A, “Gallium-containing compounds for the treatment of infections caused by intracellular pathogens and pathogens causing chronic pulmonary infection” (priority 1996, dated 2001).

Assays:
[1] = test system: M. avium-intracellulare complex (MAI), patient isolate; assay: Growth inhibition of MAI (patient isolate) in human alveolar macrophages; type: cell-based; details: 500 μM, 24 hr and 48 hr
Experimental: (§1) M. avium-intracellulare complex (MAI) was obtained from the ATCC (#25291) and from a patient isolate from the State Hygienic laboratory at the University of Iowa Hospital and Clinics. Human alveolar macrophages were obtained from broncholavage of healthy patients and placed in monolayer culture. The bacteria were added to the cells in a bacteria to macrophage ratio of about 1:1. Growth index readings were obtained at 24 hr and 48 hr after gallium nitrate administration (500 μM) as described in Example 3 and used by Cavalieri, et al. (Antimicrob. Agents and Chemo. 39:1542-1545,1995).

[2] = test system: infected and uninfected cells; details: read-out: concentration not toxic in vitro
[3] = test system: M. tuberculosis strain Erdman in human macrophages; assay: Growth inhibition of M. tuberculosis Erdman in human monocyte derived macrophages (MDM); type: cell-based
Experimental: (§2) Monocyte derived macrophages (MDM) containing strain H37Ra were incubated for 24 h (FIG. 2A), 48 h (FIG. 2B) or 72 h (FIG. 2C) and macrophages containing the virulent strain Erdman were incubated for 24 h (FIG. 2D) or 48 h (FIG. 2E) in gallium nitrate.
(§3) The gallium-containing compounds can also be tested for their ability to inhibit intracellular pathogens in tissue culture assays. In general, in these assays, the macrophages are placed in culture and incubated with the intracellular pathogen at an approximate cell to pathogen ratio of preferably at least 1:1 to about 1:5 cells:pathogen. Exemplary culture conditions are provided in the assays detailed in the Examples. For assays assessing M. tuberculosis infection, freshly adherent monocytes, 12 day-old adherent MDMs, or freshly adherent alveolar macrophages are incubated with M. tuberculosis, MAI or other intracellular bacteria at a ratio of about 1:1 to about 1:5 (phagocyte:bacterium). For M. tuberculosis or MAI, the bacteria are incubated with the phagocyte for 2 hr at 37° C. in RPMI/HEPES media with 2.5% serum or human serum albumin (serum-free). The cells are washed to remove non-adherent bacteria and monolayers are replated with RPMI containing 1% autologous serum (to maintain phagocyte viability but not to sustain extracellular growth of bacteria). Gallium-containing compounds, such as gallium nitrate, with, or without, other agents such as antibiotics, cytokines etc., are added about 24 hr. later and mycobacterial growth in cell lysates is then assessed over the next several days either by the radiometric BACTEC system or by colony-forming units on agarose plates. In each experiment, growth is assessed relative to control monolayers where no drug has been added.
(§4) Mononuclear phagocytes from healthy adult volunteers who were tuberculin skin test negative and had no history of mycobacterial infection were isolated and cultured in Teflon wells according to the methods of Schlesinger, et al. (J. Immunol. 150:2920-2930, 1993). […]

[4] = cited from earlier work
[5] = test system: Macrophages (MDMs) infected with M. tuberculosis; assay: Monolayer density of macrophages (MDMs) infected with M. tuberculosis and treated with gallium nitrate; type: cell-based, human
Experimental: Macrophages were infected with M. tuberculosis at a ratio of 1:5 (MDMs:bacteria) and treated with 500 μM or 1 mM gallium nitrate. Cell density was assessed over time. The results of the experiments comparing the monolayer integrity of untreated vs. gallium nitrate treated cultures were as follows: […]

[6] = test system: M. tuberculosis strain H37Ra in human macrophages; assay: Growth inhibition of M. tuberculosis H37Ra in human monocyte derived macrophages (MDM); type: cell-based
Experimental: as §2, §3, §4

[7] = test system: macrophage monolayers (MDMs); assay: Gallium toxicity in uninfected MDM monolayers; type: cell-based, human; details: naphthol blue stained nuclei count, read-out: gallium concentration up to which no immediate difference in monolayer density
Experimental: To test the potential toxicity of gallium nitrate on the standard macrophage monolayers (MDMs) used in the assays described in this invention, uninfected MDM monolayers were incubated with various concentrations of gallium nitrate in the range used in the studies described in Examples 2 and 3.
There was no immediate difference in monolayer density between MDM monolayers with and without gallium nitrate treatment up to a gallium concentration of 2 mM. Results were based on counting napthol blue macrophage stained nuclei from the monolayer. These numbers directly correlate with the number of cells present. In most cases the integrity of the MDM monolayer in the presence of gallium was maintained for up to 37 days, equivalent to untreated, uninfected control cultures.

[8] = test system: M. avium-intracellulare complex (MAI), ATCC #25291; assay: Growth inhibition of MAI (ATCC isolate) in human alveolar macrophages; type: cell-based; details: 500 μM, 24 hr and 48 hr
Experimental: as §1

SMILES: O=[N+]([O-])[O-].O=[N+]([O-])[O-].O=[N+]([O-])[O-].[Ga+3] [gallium nitrate]
- growth inhibition of MAI [1]: inhibits the growth of MAI
- growth inhibition of MAI ([1]; listed as Gallium nitrate): significant inhibition of MAI growth
- MNTC [2]: 1 mM
- inhibition of growth ([3]; 24 h): Inhibition of growth was observed
- inhibition of growth ([3]; about 1 to about 1000 μM): dose-dependent inhibition of growth
- inhibition of growth versus 24 h ([3]; text: 48 and 72 h, FIG. 2 legend: 24 and 48 h for Erdman): More marked inhibition of growth
- dose that is non-toxic in vivo ([4]; in vivo): at least 200 mg/m^2 /day
- plasma concentration that is non-toxic in vivo ([4]; in vivo): greater than 1.2 mg/L
- tolerated dose ([4]; intravenous, at least 7 days (Todd et al.)): at least 200 mg/m^2 /day
- safe dose in cancer patient therapy ([4]; literature, cancer patients): at least 200 mg/m^2 /day
- tolerability ([4]; patients with cancer-related hypercalcemia): well tolerated, producing few clinically relevant adverse effects
- Monolayer Integrity ([5]; Experiment #2, Day 1, 24 hr postinfection, 500 μM or 1 mM): No difference between Ga-treated and control
- Monolayer Integrity ([5]; Experiment #2, Day 3, 4 days postinfection, 500 μM or 1 mM): No difference between Ga-treated and control
- Monolayer Integrity: times the number of cells in Ga-treated cultures ([5]; Experiment #2, Day 6, 7 days postinfection, 500 μM or 1 mM): 2-4 times
- Monolayer Integrity ([5]; Experiment No. 1, Day 1, 24 h postinfection, 500 μM or 1 mM): No difference
- Monolayer Integrity: more cells in Ga-treated cultures ([5]; Experiment No. 1, Day 8, 9 days postinfection, 500 μM or 1 mM): 25-50%
- Monolayer Integrity: times as many cells in Ga-treated cultures ([5]; Experiment No. 1, Day 11, 12 days postinfection, 500 μM or 1 mM): 4-5 times
- Monolayer Integrity: times as many cells in Ga-treated cultures ([5]; Experiment No. 1, Day 29, 30 days postinfection, 500 μM or 1 mM): 4-5 times
- Monolayer Integrity ([5]; Experiment No. 1, Day 33, 34 days postinfection, control wells had no cells left): No difference between monolayers treated
- inhibition of growth versus 24 h ([6]; 48 and 72 h): More marked inhibition of growth
- inhibition of growth ([6]; 24 h): Inhibition of growth was observed
- inhibition of growth ([6]; about 1 to about 1000 μM): dose-dependent inhibition of growth
- MNTC [7]: ≥ 2 mM
- growth inhibition of MAI [8]: inhibits the growth of MAI
- growth inhibition of MAI ([8]; listed as Gallium nitrate): significant inhibition of MAI growth
